Reference: PubChem BioAssay AID2060491 (Molecular Pharmacology Branch, DTP, NCI, 2025)

Tested on: 857933-349-R-J2-PDC complex spheroids, viability
Assay: Anticancer human tumor 857933-349-R-J2-PDC patient-derived colon adenocarcinoma cell line growth inhibition [GQUAD]
Details: for IC50: curve of first compound; for viability, T/C: stronger effect = lower value
How it was run: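 Tumor cells were grown as complex spheroids with HUVEC endothelial cells and mesenchymal stem cells as stroma. G-quadruplex stabilizers were combined with targeted agents over half-log dilutions from near the clinical Cmax, or from 10 microM.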

[1] = second compound 0.0316 µM, first compound 0.0316 µM
[2] = second compound 0.0316 µM, first compound 0.316 µM
[3] = second compound 0.1 µM, first compound 0.0316 µM
[4] = second compound 0.1 µM, first compound 0.316 µM
[5] = second compound 0.316 µM, first compound 0.0316 µM
[6] = second compound 0.316 µM, first compound 0.316 µM
[7] = second compound 1 µM, first compound 0.0316 µM
[8] = second compound 1 µM, first compound 0.316 µM
[9] = second compound 3.16 µM, first compound 0.0316 µM
[10] = second compound 3.16 µM, first compound 0.316 µM
[11] = second compound 10 µM, first compound 0.0316 µM
[12] = second compound 10 µM, first compound 0.316 µM
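Further: spheroids exposed to compounds for one week before readout.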
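Wherever viability, T/C is given: percent viability relative to vehicle DMSO wells taken as 100%.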

Cc1cccc(N(C)C(=O)C2C(O)CCN2c2nc(C)cc(C(F)(F)F)c2C#N)c1 (centres undefined) + Cc1cnc(CNC(=O)c2c(=O)c3ccc(N4CCCN(C)CC4)nc3n3c2sc2ccccc23)cn1
IC50 (second compound 0.0316 µM): > 10000 nM | IC50 (second compound 0.1 µM): > 10000 nM | IC50 (second compound 0.316 µM): < 31.6 nM | IC50 (second compound 1 µM): < 31.6 nM | IC50 (second compound 3.16 µM): < 31.6 nM | IC50 (second compound 10 µM): < 31.6 nM | viability, T/C [1]: 92% | viability, T/C (second compound 0.0316 µM, first compound 0.1 µM): 88.2% | viability, T/C [2]: 94.4% | viability, T/C (second compound 0.0316 µM, first compound 1 µM): 82.3% | viability, T/C (second compound 0.0316 µM, first compound 3.16 µM): 95.1% | viability, T/C (second compound 0.0316 µM, first compound 10 µM): 77.6% | viability, T/C [3]: 70.8% | viability, T/C (second compound 0.1 µM, first compound 0.1 µM): 73.3% | viability, T/C [4]: 62.9% | viability, T/C (second compound 0.1 µM, first compound 1 µM): 58.8% | viability, T/C (second compound 0.1 µM, first compound 3.16 µM): 74.5% | viability, T/C (second compound 0.1 µM, first compound 10 µM): 64.1% | viability, T/C [5]: 24.6% | viability, T/C (second compound 0.316 µM, first compound 0.1 µM): 29.8% | viability, T/C [6]: 27.1% | viability, T/C (second compound 0.316 µM, first compound 1 µM): 23.4% | viability, T/C (second compound 0.316 µM, first compound 3.16 µM): 24.2% | viability, T/C (second compound 0.316 µM, first compound 10 µM): 22.7% | viability, T/C [7]: 4.6% | viability, T/C (second compound 1 µM, first compound 0.1 µM): 7.14% | viability, T/C [8]: 5.51% | viability, T/C (second compound 1 µM, first compound 1 µM): 4.02% | viability, T/C (second compound 1 µM, first compound 3.16 µM): 4.11% | viability, T/C (second compound 1 µM, first compound 10 µM): 3.8% | viability, T/C [9]: 2.72% | viability, T/C (second compound 3.16 µM, first compound 0.1 µM): 2.17% | viability, T/C [10]: 1.95% | viability, T/C (second compound 3.16 µM, first compound 1 µM): 2.02% | viability, T/C (second compound 3.16 µM, first compound 3.16 µM): 2.19% | viability, T/C (second compound 3.16 µM, first compound 10 µM): 1.89% | viability, T/C [11]: 2.6% | viability, T/C (second compound 10 µM, first compound 0.1 µM): 2.28% | viability, T/C [12]: 2.23% | viability, T/C (second compound 10 µM, first compound 1 µM): 1.9% | viability, T/C (second compound 10 µM, first compound 3.16 µM): 1.89% | viability, T/C (second compound 10 µM, first compound 10 µM): 0.69%

Cn1ncnc1[C@H]1c2n[nH]c(=O)c3cc(F)cc(c23)N[C@@H]1c1ccc(F)cc1 + Cc1cnc(CNC(=O)c2c(=O)c3ccc(N4CCCN(C)CC4)nc3n3c2sc2ccccc23)cn1
IC50 (second compound 0.0316 µM): > 316 nM | IC50 (second compound 0.1 µM): > 316 nM | IC50 (second compound 0.316 µM): < 0.999 nM | IC50 (second compound 1 µM): < 0.999 nM | IC50 (second compound 3.16 µM): < 0.999 nM | IC50 (second compound 10 µM): < 0.999 nM | viability, T/C (second compound 0.0316 µM, first compound 0.000999 µM): 88.5% | viability, T/C (second compound 0.0316 µM, first compound 0.00316 µM): 89.1% | viability, T/C (second compound 0.0316 µM, first compound 0.00999 µM): 93.4% | viability, T/C [1]: 95% | viability, T/C (second compound 0.0316 µM, first compound 0.0999 µM): 88.9% | viability, T/C [2]: 81.7% | viability, T/C (second compound 0.1 µM, first compound 0.000999 µM): 59.6% | viability, T/C (second compound 0.1 µM, first compound 0.00316 µM): 73.6% | viability, T/C (second compound 0.1 µM, first compound 0.00999 µM): 62.5% | viability, T/C [3]: 71.9% | viability, T/C (second compound 0.1 µM, first compound 0.0999 µM): 73.5% | viability, T/C [4]: 65.6% | viability, T/C (second compound 0.316 µM, first compound 0.000999 µM): 28.8% | viability, T/C (second compound 0.316 µM, first compound 0.00316 µM): 27.8% | viability, T/C (second compound 0.316 µM, first compound 0.00999 µM): 27.1% | viability, T/C [5]: 22.5% | viability, T/C (second compound 0.316 µM, first compound 0.0999 µM): 29.8% | viability, T/C [6]: 31.5% | viability, T/C (second compound 1 µM, first compound 0.000999 µM): 7% | viability, T/C (second compound 1 µM, first compound 0.00316 µM): 5.78% | viability, T/C (second compound 1 µM, first compound 0.00999 µM): 5.4% | viability, T/C [7]: 5.4% | viability, T/C (second compound 1 µM, first compound 0.0999 µM): 5.1% | viability, T/C [8]: 5.12% | viability, T/C (second compound 3.16 µM, first compound 0.000999 µM): 2.09% | viability, T/C (second compound 3.16 µM, first compound 0.00316 µM): 2.13% | viability, T/C (second compound 3.16 µM, first compound 0.00999 µM): 2.38% | viability, T/C [9]: 2.9% | viability, T/C (second compound 3.16 µM, first compound 0.0999 µM): 3.1% | viability, T/C [10]: 2.73% | viability, T/C (second compound 10 µM, first compound 0.000999 µM): 1.74% | viability, T/C (second compound 10 µM, first compound 0.00316 µM): 2.35% | viability, T/C (second compound 10 µM, first compound 0.00999 µM): 2.39% | viability, T/C [11]: 2.68% | viability, T/C (second compound 10 µM, first compound 0.0999 µM): 2.08% | viability, T/C [12]: 2.52%
